We go through 55 molecules from ChEMBL document CHEMBL3879907, “8-azabicyclo[3.2.1]octane compounds as mu opioid receptor antagonists” (2014).

Structures are written as SMILES.

Assay [1] has as its target Mu-type opioid receptor (Homo sapiens) (UniProt P35372). As to the kind of experiment: Intrinsic activity at human mu opioid receptor expressed in CHOK1 cell membranes at 0.00001 to 20 uM after 30 mins by GTP-Eu nucleotide exchange assay relative to DAMGO. Format: functional. Particulars: CHO-K1.
In assay [2] the target is Kappa-type opioid receptor (Cavia porcellus, UniProt P41144). Briefly: Displacement of [3H]-diprenorphine from guinea pig kappa opioid receptor expressed in CHOK1 cell membranes. Particulars: cho-k1.
The target of assay [3] is Delta-type opioid receptor (Homo sapiens, UniProt P41143). As to the kind of experiment: Displacement of [3H]-diprenorphine from human delta opioid receptor expressed in cell membranes. In general terms: In a radioligand displacement assay an active substance lowers the binding of a labelled ligand.
Chain of Delta-type opioid receptor (P41143 whole entry): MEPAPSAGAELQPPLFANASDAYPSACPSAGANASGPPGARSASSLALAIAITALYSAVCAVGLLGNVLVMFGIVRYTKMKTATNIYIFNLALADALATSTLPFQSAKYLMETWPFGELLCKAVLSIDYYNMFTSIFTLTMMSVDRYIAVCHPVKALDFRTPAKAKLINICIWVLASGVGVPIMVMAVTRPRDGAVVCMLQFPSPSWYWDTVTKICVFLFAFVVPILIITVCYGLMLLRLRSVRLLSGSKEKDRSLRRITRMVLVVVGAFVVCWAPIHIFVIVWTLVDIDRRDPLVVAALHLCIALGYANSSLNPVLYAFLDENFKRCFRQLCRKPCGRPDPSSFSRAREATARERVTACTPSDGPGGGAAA

Chain of Kappa-type opioid receptor (P41144 whole entry): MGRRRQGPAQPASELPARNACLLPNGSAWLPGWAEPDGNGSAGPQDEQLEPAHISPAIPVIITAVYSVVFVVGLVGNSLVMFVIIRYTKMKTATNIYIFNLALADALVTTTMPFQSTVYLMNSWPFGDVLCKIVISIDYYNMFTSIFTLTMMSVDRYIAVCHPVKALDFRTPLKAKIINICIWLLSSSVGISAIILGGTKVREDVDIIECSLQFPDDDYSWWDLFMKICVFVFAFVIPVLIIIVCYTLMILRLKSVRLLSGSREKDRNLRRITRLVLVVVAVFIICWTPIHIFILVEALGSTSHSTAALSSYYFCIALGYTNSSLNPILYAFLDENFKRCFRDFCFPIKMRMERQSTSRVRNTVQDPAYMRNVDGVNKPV
Chain of Mu-type opioid receptor (Homo sapiens) (P35372 whole entry): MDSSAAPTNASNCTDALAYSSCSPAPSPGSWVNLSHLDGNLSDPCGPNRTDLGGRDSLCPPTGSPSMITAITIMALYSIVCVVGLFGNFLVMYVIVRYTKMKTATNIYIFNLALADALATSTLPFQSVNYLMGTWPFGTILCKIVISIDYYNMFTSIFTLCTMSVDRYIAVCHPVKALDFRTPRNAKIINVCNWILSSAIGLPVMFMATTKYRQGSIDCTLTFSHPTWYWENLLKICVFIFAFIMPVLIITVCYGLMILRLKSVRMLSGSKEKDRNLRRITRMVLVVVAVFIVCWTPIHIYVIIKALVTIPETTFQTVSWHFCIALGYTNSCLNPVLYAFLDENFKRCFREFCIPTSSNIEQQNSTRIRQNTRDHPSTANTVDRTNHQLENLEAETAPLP

For `NC(=O)c1cccc([C@H]2C[C@H]3CC[C@@H](C2)N3CCN(CCCC2CCCCC2)C(=O)CO)c1`, the Intrinsic activity in assay [1] is < 40%. Moreover, the negative logarithm of the Ki (pKi) in assay [2] and in assay [3] was 7 to 10.5 each time.
With `CS(=O)(=O)CC(=O)N(CCN1[C@@H]2CC[C@H]1C[C@@H](c1cccc(C(N)=O)c1)C2)CC1CCCCC1`, the Intrinsic activity in assay [1] was < 40%. The pKi in assay [2] and in assay [3] was 7 to 10.5 throughout.
As for `NC(=O)c1cccc([C@H]2C[C@H]3CC[C@@H](C2)N3CCN(CC2CCC(C(F)(F)F)CC2)C(=O)[C@@H](O)CO)c1` (some centres undefined), the Intrinsic activity in assay [1] is < 40%.
On to `NC(=O)c1cccc([C@H]2C[C@H]3CC[C@@H](C2)N3CCN(CCc2ccc(O)cc2)C(=O)CO)c1.O=C(O)C(F)(F)F`, for which, in assay [1], the Intrinsic activity is < 40%. In addition, the pKi in assay [2] and in assay [3] was 7 to 10.5 in each case.
For the molecule `CS(=O)(=O)CC(=O)N(CCN1[C@@H]2CC[C@H]1C[C@@H](c1cccc(C(N)=O)c1)C2)CC1CCC(C(F)(F)F)CC1` (some centres undefined), the Intrinsic activity in assay [1] was < 40%.
Take `O=C(C1CCCC1)N(CCN1[C@@H]2CC[C@H]1C[C@@H](c1cccc(O)c1)C2)CC1CCCCC1`: in assay [1], the Intrinsic activity is < 40%. The negative-log Ki (pKi) in assay [2] and in assay [3] was 7 to 10.5 throughout.
In the case of `CC(C)(C)C(=O)N(CCN1[C@@H]2CC[C@H]1C[C@@H](c1cccc(C(N)=O)c1)C2)CC1CCCC1.O=C(O)C(F)(F)F`, the Intrinsic activity in assay [1] was < 40%. The pKi in assay [2] and in assay [3] was 7 to 10.5 throughout.
As to `NC(=O)c1cccc([C@H]2C[C@H]3CC[C@@H](C2)N3CCN(CC2CCCCC2)C(=O)[C@H](O)CO)c1`, the Intrinsic activity in assay [1] is < 40%. In addition, the pKi in assay [2] and in assay [3] was 7 to 10.5 throughout.
On to `O=C(O)CCC(=O)N(CCN1[C@@H]2CC[C@H]1C[C@@H](c1cccc(O)c1)C2)CC12CC3CC(CC(C3)C1)C2`, for which the Intrinsic activity in assay [1] was < 40%.
With `CC(CO)(CO)C(=O)N(CCN1[C@@H]2CC[C@H]1C[C@@H](c1cccc(C(N)=O)c1)C2)CC1CCC(F)(F)CC1.O=C(O)C(F)(F)F`, the Intrinsic activity in assay [1] was < 40%. The pKi in assay [2] and in assay [3] was 7 to 10.5 in each case.
`NC(=O)c1cccc([C@H]2C[C@H]3CC[C@@H](C2)N3CCN(Cc2c(F)cccc2F)C(=O)[C@@H](O)Cc2ccccc2)c1.O=C(O)C(F)(F)F`: the Intrinsic activity in assay [1] is < 40%. Besides, the negative logarithm of the Ki (pKi) in assay [2] and in assay [3] was 7 to 10.5 each time.
Take `NC(=O)c1cccc([C@H]2C[C@H]3CC[C@@H](C2)N3CCCN(CC2CCCCC2)C(=O)CO)c1`: the Intrinsic activity in assay [1] was < 40%. Further, the pKi in assay [2] and in assay [3] was 7 to 10.5 throughout.
For `CC(C)(CO)C(=O)N(CCN1[C@@H]2CC[C@H]1C[C@@H](c1cccc(C(N)=O)c1)C2)Cc1c(F)cccc1F.O=C(O)C(F)(F)F`, the Intrinsic activity in assay [1] is < 40%. Moreover, the pKi in assay [2] and in assay [3] was 7 to 10.5 throughout.
On to `CC(CO)(CO)C(=O)N(CCN1[C@@H]2CC[C@H]1C[C@@H](c1cccc(C(N)=O)c1)C2)CC1CCCC1.O=C(O)C(F)(F)F`, for which the Intrinsic activity in assay [1] is < 40%. In addition, the pKi in assay [2] and in assay [3] was 7 to 10.5 each time.
On to `NC(=O)CCC(=O)N(CCN1[C@@H]2CC[C@H]1C[C@@H](c1cccc(O)c1)C2)CC1CCCCC1`, for which, in assay [1], the Intrinsic activity is < 40%. The pKi in assay [2] and in assay [3] was 7 to 10.5 throughout.
On to `NC(=O)c1cccc([C@H]2C[C@H]3CC[C@@H](C2)N3CCN(CC2CCCCC2)C(=O)Cc2ccccc2)c1`, for which the Intrinsic activity in assay [1] was < 40%. Moreover, the pKi in assay [2] and in assay [3] was 7 to 10.5 throughout.
`O=C(Nc1ccc2c(c1)OCO2)N(CCN1[C@@H]2CC[C@H]1C[C@@H](c1cccc(O)c1)C2)CC1CCCCC1`: in assay [1], the Intrinsic activity was < 40%. Further, the pKi in assay [2] and in assay [3] was 7 to 10.5 throughout.
As for `NC(=O)c1cccc([C@H]2C[C@H]3CC[C@@H](C2)N3CCN(Cc2c(F)cccc2F)C(=O)[C@H]2CC[C@H](O)CC2)c1.O=C(O)C(F)(F)F`, in assay [1], the Intrinsic activity was < 40%. Further, the pKi in assay [2] and in assay [3] was 7 to 10.5 each time.
On to `CC(C)CC(=O)N(CCN1[C@@H]2CC[C@H]1C[C@@H](c1cccc(O)c1)C2)Cc1c(F)cccc1F`, for which the Intrinsic activity in assay [1] was < 40%. Also, the pKi in assay [2] and in assay [3] was 7 to 10.5 in each case.
As to `NC(=O)c1cccc([C@H]2C[C@H]3CC[C@@H](C2)N3CCN(CC23CC4CC(CC(C4)C2)C3)C(=O)CO)c1`, the Intrinsic activity in assay [1] was < 40%.
Turning to `O=C(O)C1CCCCC1C(=O)N(CCN1[C@@H]2CC[C@H]1C[C@@H](c1cccc(O)c1)C2)CC1CCCCC1` (some centres undefined), the Intrinsic activity in assay [1] was < 40%.
The same measure, in the same setting: with `NC(=O)c1cccc([C@H]2C[C@H]3CC[C@@H](C2)N3CCN(C[C@H]2CC[C@H](O)CC2)C(=O)[C@@H](O)CO)c1` the figure was < 40%.
On the same count and under the same terms, as for `NC(=O)c1cccc([C@H]2C[C@H]3CC[C@@H](C2)N3CCN(CC23CC4CC(CC(C4)C2)C3)C(=O)CCC(=O)O)c1`, the figure is < 40%; as for `O=C(CO)N(CCN1[C@@H]2CC[C@H]1C[C@@H](c1cccc(O)c1)C2)CC12CC3CC(CC(C3)C1)C2`, < 40%.
On the same count and under the same terms, with `O=C(N(CCN1[C@@H]2CC[C@H]1C[C@@H](c1cccc(O)c1)C2)CC1CCCCC1)C1(O)CC1` the figure was < 40%.
As for `CC(C)(C)C(=O)N(CCCN1[C@@H]2CC[C@H]1C[C@@H](c1cccc(C(N)=O)c1)C2)Cc1ccccc1`, the Intrinsic activity in assay [1] was < 40%.
On the same count and under the same terms, with `NC(=O)c1cccc([C@H]2C[C@H]3CC[C@@H](C2)N3CCN(CC23CC4CC(CC(O)(C4)C2)C3)C(=O)CO)c1` the figure was < 40%.
The same measure, in the same setting: as for `NC(=O)c1cccc([C@H]2C[C@H]3CC[C@@H](C2)N3CCN(CC23CC4CC(CC(O)(C4)C2)C3)C(=O)[C@@H](O)CO)c1`, the figure is < 40%; as for `COC(=O)CCC(=O)N(CCN1[C@@H]2CC[C@H]1C[C@@H](c1cccc(O)c1)C2)Cc1ccccc1`, < 40%.
Still for that read-out and setting: with `CC(O)C(=O)N(CCN1[C@@H]2CC[C@H]1C[C@@H](c1cccc(C(N)=O)c1)C2)Cc1ccccc1` (some centres undefined) the figure was < 40%.
`CN(C)CC(O)C(=O)N(CCN1[C@@H]2CC[C@H]1C[C@@H](c1cccc(C(N)=O)c1)C2)CC1CCCCC1` (some centres undefined): the Intrinsic activity in assay [1] is < 40%.
For the molecule `NC(=O)c1cccc([C@H]2C[C@H]3CC[C@@H](C2)N3CCN(CC2CCC(C(F)(F)F)CC2)C(=O)CO)c1` (some centres undefined), in assay [1], the Intrinsic activity was < 40%.
Same read-out and setting: as for `C[C@@H](O)[C@H](O)C(=O)N(CCN1[C@@H]2CC[C@H]1C[C@@H](c1cccc(C(N)=O)c1)C2)Cc1ccccc1`, the figure is < 40%; as for `CC(=O)N(CCN1[C@@H]2CC[C@H]1C[C@@H](c1cccc(O)c1)C2)CC12CC3CC(CC(C3)C1)C2`, < 40%; as for `O=C(O)c1cccc([C@H]2C[C@H]3CC[C@@H](C2)N3CCN(CC2CCCCC2)C(=O)[C@@H](O)CO)c1`, < 40%.
On the same count and under the same terms, as for `NC(=O)c1cccc([C@H]2C[C@H]3CC[C@@H](C2)N3CCN(Cc2ccccc2)C(=O)[C@H](O)CO)c1`, the figure is < 40%; as for `O=C(CCC1CCCC1)N(CCN1[C@@H]2CC[C@H]1C[C@@H](c1cccc(O)c1)C2)CC1CCCCC1`, < 40%; as for `NC(=O)c1cccc([C@H]2C[C@H]3CC[C@@H](C2)N3CCN(C[C@H]2CC[C@@H](O)CC2)C(=O)[C@@H](O)CO)c1`, < 40%.
Regarding `O=C(CO)N(CCN1[C@@H]2CC[C@H]1C[C@@H](c1cccc(O)c1)C2)Cc1ccccc1`, the pKi in assay [2] and in assay [3] was 7 to 10.5 in each case.
For the molecule `NC(=O)c1cccc([C@H]2C[C@H]3CC[C@@H](C2)N3CCN(CC2CCC(F)CC2)C(=O)CO)c1` (some centres undefined), the Intrinsic activity in assay [1] is < 40%.
Same read-out and setting: as for `CC(O)C(O)C(=O)N(CCCN1[C@@H]2CC[C@H]1C[C@@H](c1cccc(C(N)=O)c1)C2)Cc1ccccc1` (some centres undefined), the figure is < 40%.
Take `CS(=O)(=O)CC(=O)N(CCc1ccccc1)CCN1[C@@H]2CC[C@H]1C[C@@H](c1cccc(C(N)=O)c1)C2.O=C(O)C(F)(F)F`: the pKi in assay [2] and in assay [3] was 7 to 10.5 throughout.
For `C[C@H](O)C(=O)N(CCCN1[C@@H]2CC[C@H]1C[C@@H](c1cccc(C(N)=O)c1)C2)Cc1ccccc1`, the Intrinsic activity in assay [1] was < 40%.
Still for that read-out and setting: with `O=C(O)C(O)CC(=O)N(CCN1[C@@H]2CC[C@H]1C[C@@H](c1cccc(O)c1)C2)Cc1cccc(F)c1` (some centres undefined) the figure was < 40%; with `O=C(CO)N(CCN1[C@@H]2CC[C@H]1C[C@@H](c1cccc(O)c1)C2)Cc1ccc(Cl)cc1`, < 40%.
Same read-out and setting: with `CC1CCC(CN(CCN2[C@@H]3CC[C@H]2C[C@@H](c2cccc(C(N)=O)c2)C3)C(=O)[C@@H](O)CO)CC1` (some centres undefined) the figure was < 40%; with `NC(=O)c1cccc([C@H]2C[C@H]3CC[C@@H](C2)N3CCN(CC2CCC(F)(F)CC2)C(=O)[C@@H](O)CO)c1`, < 40%; with `CC1CCC(CN(CCN2[C@@H]3CC[C@H]2C[C@@H](c2cccc(C(N)=O)c2)C3)C(=O)CS(C)(=O)=O)CC1` (some centres undefined), < 40%.
On to `CCC(C)NC(=O)N(CCN1[C@@H]2CC[C@H]1C[C@@H](c1cccc(O)c1)C2)CC1CCCCC1` (some centres undefined), for which the Intrinsic activity in assay [1] is < 40%.
As to `CC(=O)N(CCN1[C@@H]2CC[C@H]1C[C@@H](c1cccc(C(N)=O)c1)C2)CC12CC3CC(CC(C3)C1)C2`, the Intrinsic activity in assay [1] was < 40%.
Still for that read-out and setting: with `CN(C)S(=O)(=O)N(CCN1[C@@H]2CC[C@H]1C[C@@H](c1cccc(C(N)=O)c1)C2)Cc1ccc(CF)cc1` the figure was < 40%; with `NC(=O)c1cccc([C@H]2C[C@H]3CC[C@@H](C2)N3CCN(CC2CCC(F)CC2)C(=O)[C@@H](O)CO)c1` (some centres undefined), < 40%; with `CCC(C)NC(=O)N(CCN1[C@@H]2CC[C@H]1C[C@@H](c1cccc(C(N)=O)c1)C2)CC1CCCCC1` (some centres undefined), < 40%.
On the same count and under the same terms, as for `O=C(C(O)CCc1ccccc1)N(CCN1[C@@H]2CC[C@H]1C[C@@H](c1cccc(O)c1)C2)CC1CCCCC1` (some centres undefined), the figure is < 40%.
With `CC(C)(C)NCC[C@H](O)C(=O)N(CCN1[C@@H]2CC[C@H]1C[C@@H](c1cccc(C(N)=O)c1)C2)CC1CCCCC1`, the Intrinsic activity in assay [1] was < 40%.
